The results in this text go back to patent publication US9975881B2, “Compound” (ASTRAZENECA AB, priority 2011, dated 2018).

Data set [1] is described as follows: Dog half-life (measured), in vivo pharmacokinetics. To be noted: male, 1 mg/kg; elimination half-life in plasma, intravenous 30 minute infusion, beagle dog, mean of a minimum of two dogs. From the text:
The following describes the methods used to obtain in vivo pharmacokinetic parameters in the male beagle dog. It is applicable for use with any compound but may need modification based on such parameters as solubility, assay sensitivity, anticipated clearance and half-life, when the default formulation, dose level or sampling intervals may be inappropriate. The method described here represents a standard approach from which justified and documented modifications can be made.
A standard dose solution of 1 mg·mL^−1 was prepared. The recommended dose vehicle (if the compound was not sufficiently soluble in isotonic saline) was 10%/o DMSO:90% sterile water or saline with pH adjustment using 1 M HCl or NaOH. […]
Blood samples (˜1 ml) were taken into EDTA treated sampling tubes and plasma was prepared by centrifugation (3 minutes at 13000 rpm) soon after sample collection. Samples were taken at pre determined times over 24 hours (e.g. 0, 5, 15, 30, 35, 45, 60, 90, 120, 180, 240, 300, 360, 420, 720, 1440 minutes). The concentration of the analyte(s) was quantitatively determined in plasma by mass spectrometry. […]
To each of the test samples, dose tests, standards and QCs 100 μL (90 μl for dose tests, standards and QCs) of methanol was added followed by 100 μl of internal standard. […] Aliquots (120 μL) of each sample were transferred into a microtitre plate ready for analysis via HPLC/MS-MS. […]

Another data set concerns plasma proteins. Kind of data set: Human plasma protein binding (hPPB), equilibrium dialysis. The data set is classed as in vitro ADME. The following applies: human plasma pH 7.4, 37° C., 18 hours, 10 μM. Here is the method: Measurement of Human Plasma Protein Binding (hPPB)
The extent of binding of a drug to plasma proteins is a crucial factor in determining in vivo potency and pharmacokinetics. The method used for determining the extent of plasma protein binding involves equilibrium dialysis of the compound between plasma and buffer at 37° C. The concentrations of compound in the plasma and buffer are then determined using high pressure liquid chromatography (HPLC) with mass spectroscopy (MS) detection. The dialysis method involves the use of mixtures of up to 10 compounds simultaneously. At the concentrations used in the assay, there is no significant difference in the results when compounds are run singly or in mixtures.
Membranes (molecular weight cut-off 5000) were first prepared by soaking in the dialysis buffer for a minimum of 1 hour. […]
The samples and standards were then analysed using HPLC with MS detection, which allows deconvolution of the mixtures of compounds. […]
The chromatograms were processed using MassLynx software that automatically calculates a calibration curve for each compound in a mixture and then interpolates the concentrations of buffer and plasma samples. […] The percentage bound was calculated from the MassLynx data using the following equation: […]
The % free (100-% bound) for each compound was calculated from the concentration data, and then recorded.
On the technique in general: Equilibrium dialysis compares concentrations on both sides of a semipermeable membrane.

The structures appear in SMILES notation.

As a reminder, the half-life is how long it takes for the measured level to halve. A higher half-life goes with slow decline. Take `CC1CN(S(=O)(=O)Nc2cc(O[C@H](C)[C@@H](O)CO)nc(SCc3ccc(F)cc3)n2)C1` [Example 1, N-(6-((2R,3S)-3,4-Dihydroxybutan-2-yloxy)-2-(4-fluorobenzylthio)pyrimidin-4-yl)-3-methylazetidine-1-sulfonamide]: the half-life in data set [1] is 3.7 h. For the same molecule, the “human plasma protein binding (% free)” value in the data set with plasma proteins was 0.11 (±0.05) % free.
